A word on the melting point: it is the temperature, or range, at which the solid turns liquid.

The target of data set [1] is T1, GAβ-dependent amyloid fibril formation (Human Aβ1-40 + GM1-containing liposome) (Homo sapiens, UniProt P05067).
T1 construct: Human Aβ1-40 (cat. #4307-v, prepared by Peptide Institute); purchased Peptide Institute 4307-v
Kind of data set: Thioflavin T (ThT) assay of GAβ-dependent amyloid fibril formation (Aβ1-40 with GM1-containing liposome). Format: biochemical. The procedure, abridged:
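Human Aβ1-40 (75 μM stock) pre-incubated 10 min at room temperature with compound (75 or 15 μM solution), then GM1-containing cholesterol/sphingomyelin liposome added and incubated 37° C, 18 hours. Fibrils quantified by ThT fluorescence (ex 430/em 490 nm, pH 8.5 glycine buffer); inhibition as ratio to compound-free control.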

The mark [2] stands for this setting: inhibition rate against amyloid fibril formation, final concentration of the compound 25 μM, read-out: Inhibitory activity ABC evaluation.
Setting [3] is: @25 μM, read-out: ThT Inhibitory activity (% inhibition).

Where two headings read alike, the source gives them in different places. Where only a bound is given, the exact number is not on record here.

T1 sequence (P05067 672-711 limits assumed): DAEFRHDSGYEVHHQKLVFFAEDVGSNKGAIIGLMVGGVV

For the compound `CCCN(C(=O)CCc1nc(-c2ccc(OC)cc2)no1)c1cccc(Cl)c1` [Compound 2, N-(3-chlorophenyl)-3-{3-(4-methoxyphenyl)-1,2,4-oxadiazol-5-yl}-N-propylpropanamide], the melting point is 85 °C. Also, in data set [1] (setting [2]), the inhibition at 25 µM was in the range of 40 to 80%.
The like results for `CCCN(C(=O)Cc1nc(-c2ccc(OC)cc2)no1)c1cccc(Cl)c1` [Compound 1, N-(3-chlorophenyl)-2-{3-(4-methoxyphenyl)-1,2,4-oxadiazol-5-yl}-N-propylacetamide] were, in that order, 108 °C and < 40%.
The like results for `COc1ccc(-c2noc(CCC(=O)N(CCO)c3cccc(Cl)c3)n2)cc1` [Compound 3, N-(3-chlorophenyl)-N-(2-hydroxyethyl)-3-{3-(4-methoxyphenyl)-1,2,4-oxadiazol-5-yl}propanamide] were, in that order, 95 °C and < 40%.
`COc1ccc(-c2noc(CCC(=O)N(CCCO)c3cccc(Cl)c3)n2)cc1` [Compound 6, N-(3-chlorophenyl)-N-(3-hydroxypropyl)-3-{3-(4-methoxyphenyl)-1,2,4-oxadiazol-5-yl}propanamide] had a melting point of 80 °C. In addition, in data set [1] (setting [2]), the inhibition at 25 µM was in the range of 40 to 80%.
Consider `COc1ccc(-c2noc(CCC(=O)Nc3cc(Cl)ccn3)n2)cc1` [Compound 4, N-(4-chloropyridin-2-yl)-3-{3-(4-methoxyphenyl)-1,2,4-oxadiazol-5-yl}propanamide], for which the melting point was 167 °C. Moreover, in data set [1] (setting [2]), the inhibition at 25 µM is < 40%.
Take `O=C(c1ccc(Cl)cc1)N1CC[C@H](O)[C@H]1c1nc(-c2ccc(OC(F)(F)F)cc2)no1` [Compound 131, (4-chlorophenyl) ((2S,3S)-3-hydroxy-2-(3-(4-(trifluoro-methoxy)phenyl)-1,2,4-oxadiazol-5-yl)pyrrolidin-1-yl)methanone]: in data set [1] (setting [2]), the inhibition at 25 µM lay in the range of 40 to 80%.
As for `O=C(N[C@@H](CO)c1nc(-c2ccc3cc[nH]c3c2)no1)c1ccc(F)cc1` [Compound 250, 4-fluoro-N-[(1S)-2-hydroxy-1-[3-(1H-indol-6-yl)-1,2,4-oxadiazol-5-yl]ethyl]benzamide], the inhibition at 25 µM in data set [1] (setting [2]) lay within 40 to 80%.
On the same count and under the same terms, the figure for `Cn1cc(-c2noc([C@H](CO)NC(=O)c3ccc(F)cc3)n2)c2ccccc21` [Compound 245, 4-fluoro-N-[(1S)-2-hydroxy-1-[3-(1-methyl-1H-3-yl)-1,2,4-oxadiazol-5-yl]ethyl]benzamide] is 40 to 80%.
For `O=C(N[C@@H](CO)c1nc(-c2ccc(C(F)(F)F)cc2)no1)c1ccccc1` [Compound 130, (S)-N-(2-hydroxy-1-(3-(4-(trifluoro-methyl)phenyl)-1,2,4-oxadiazol-5-yl)ethyl)benzamide], the inhibition at 5 µM in data set [1] (@5 μM, read-out: ThT Inhibitory activity (% inhibition)) was 67%. In addition, the inhibition at 25 µM in data set [1] (setting [3]) is 85%; in data set [1] (setting [2]), > 80%.
For the compound `O=C(N[C@@H](CO)c1nc(-c2ccc(C(F)(F)F)cc2)no1)C1CC(=O)N(c2ccc(Cl)cc2)C1` (stereo partly drawn) [Compound 193, 1-(4-chlorophenyl)-N-[(1S)-2-hydroxy-1-{3-[4-(trifluoromethyl)phenyl]-1,2,4-oxadiazol-5-yl}ethyl]-5-oxopyrrolidine-3-carboxamide], the inhibition at 25 µM in data set [1] (setting [2]) was 40 to 80%.
For the compound `O=C1CC(c2nc(-c3ccc(O)cc3)no2)CN1c1ccc(Cl)cc1` (stereo not shown) [Compound 41, 1-(4-chlorophenyl)-4-{3-(4-hydroxyphenyl)-1,2,4-oxadiazol-5-yl}pyrrolidin-2-one], in data set [1] (setting [2]), the inhibition at 25 µM lay in the range of 40 to 80%.
`O=C(N[C@@H](CO)c1nc(-c2ccc(C(F)(F)F)cc2)no1)c1c(F)cccc1F` [Compound 197, 2,6-difluoro-N-[(1S)-2-hydroxy-1-{3-[4-(trifluoromethyl)phenyl]-1,2,4-oxadiazol-5-yl}ethyl]benzamide]: the inhibition at 25 µM was 70% in data set [1] (setting [3]) and 40 to 80% in data set [1] (setting [2]).
Regarding `COc1cccc2c(CC(=O)NCCc3nc(-c4c[nH]c5ccccc45)no3)c[nH]c12` [Compound 70, N-[2-{3-(1H-indol-3-yl)-1,2,4-oxadiazol-5-yl}ethyl]-2-(7-methoxy-1H-indol-3-yl) acetamide], the inhibition at 25 µM in data set [1] (setting [2]) was < 40%.
For `O=C(N[C@@H](CCO)c1nc(-c2ccc(OC(F)(F)F)cc2)no1)c1ccc(Cl)cc1` [Compound 75, (S)-4-chloro-N-(3-hydroxy-1-[3-{4-(trifluoro-methoxy)phenyl}-1,2,4-oxadiazol-5-yl]propyl) benzamide], the inhibition at 25 µM in data set [1] (setting [2]) was 40 to 80%.

The record behind these values is patent publication US10538516B2, “Oxadiazole derivative and pharmaceutical containing same” (National Center for Geriatrics and Gerontology, priority 2015, dated 2020).
